# Assay results published in article PMC9767416, “Discovery of small molecule mechanistic target of rapamycin inhibitors as anti-aging and anti-cancer therapeutics” (Frontiers in Aging Neuroscience, 2022).
# Read-outs that look alike come from different tables or passages of the source.
# Assays:
# [1] = Solubility by nephelometry (water, buffer pH 7.4); type: physicochemical
# Protocol: Compounds’ solubility was measured by the NEPHELOstar microplate instrument (BMG Labtech, Offenburg, Germany). Stock solutions were prepared by dissolving the tested compounds in ultrapure water or sodium phosphate buffer (pH 7.4) to obtain a concentration of 160 and 1,000 μg/mL. Each stock solution was sonicated at full power by Hielscher UP100H needle ultrasonic processor (Teltow, Germany) before loading into NEPHELOstar instrument injector A. Ultrapure water or sodium phosphate buffer was loaded into injector B. Compound was diluted in 48 wells in 0–160 or 0–1,000 μg/mL range and subsequently shook for 30 s. Each well was scanned with 80% laser power in matrix 3 × 3, beam width 2 mm, and obtained data were evaluated in GraphPad Prism 7.03 (GraphPad Software, San Diego, CA, USA) using segmental linear regression.
# [2] = test system: C57BL/6 (B6) male mice; experiment: Blood counts in the tolerability study; type: in vivo; conditions: for MPV: mice, blood day 8, AVG; for Eos / HGB / HOT / MCH / MCHC / MCV / Mon / Neu / PCT / PDW / PLT / RBC / RDW-CV / RDW-SD / WBC / lvm: mouse, in vivo, po
# Protocol: Compounds were dissolved in 20 μL DMSO and completed into 200 μL with corn oil.
# During the experiments, mice behavior and possible apparent signs of toxicity were monitored daily. The body weights were determined on days 0, 4, and 8. On day 8, blood (25 μL) was withdrawn using a capillary pipette containing anticoagulant (heparin) from the retroorbital sinus into EDTA-containing tubes. Basic hematological parameters were measured using the Mindray BC-5300 Vet. Mice were then killed, autopsied, and abdominal organs (spleen, liver, and kidney) were removed for visual examination and imaging by a digital camera. Single-cell suspensions from the spleens were prepared by homogenization through a cell strainer (70 μm; BD Biosciences, San Jose, CA, USA). Erythrocytes were osmotically lysed using ammonium chloride-potassium lysis buffer, and the cell suspensions were washed three times in the RPMI-1640 medium and used for further analysis by flow cytometry for selected cell populations.
# [3] = test system: C57BL/6 (B6) male mice; experiment: Histopathological analysis of spleen, kidney and liver; type: in vivo
# Protocol: Spleen, kidney, and liver tissue samples from the control and treated animals were fixed in 4% formaldehyde and embedded into paraffin. The analysis and evaluation were performed at the Czech Centre for Phenogenomics, Institute of Molecular Genetics of the CAS, Vestec, using Leica ASP6025 automatic vacuum tissue processor for tissue processing, Leica EG1150 H + C embedding station for embedding, and Leica RM2255 rotary microtome for sectioning (2 μm sections). Standard haematoxylin and eosin (HE) descriptive histopathological staining was done using Leica ST5020 + CV5030 stainer and coverslipped.
smiles,measurement,setting,value
"Nc1ccc(C(=O)Nc2cccc(-c3c[nH]c4ncccc34)c2)cc1O [Compound 3, N-(3-(1H-pyrrolo[2,3-b]pyridin-3-yl)phenyl)-4-amino-3-hydroxybenzamide]",solubility kinetic at 30 s,"[1]; aqueous buffer, sodium phosphate buffer pH 7.4, nephelometry, read-out: Sol. (buffer 7.4)",< 6 µg/mL
same,logSpH 7.4,[1]; buffer pH 7.4,<−4.76
same,Sol. (buffer 7.4),"[1]; sodium phosphate buffer pH 7.4, nephelometry",lower than 6 μg/mL
same,Sol. (H2O),"[1]; ultrapure water, nephelometry",lower than 6 μg/mL
same,solubility kinetic at 30 s,"[1]; ultrapure water, nephelometry, read-out: Sol. (H2O)",< 6 µg/mL
same,logSH2O,[1]; water,<−4.76
same,MPV,"[2]; 5 mg/kg p.o. days 0, 3, 5",5.67
same,MPV,"[2]; 25 mg/kg p.o. days 0, 3, 5",5.37
same,MPV,"[2]; 50 mg/kg p.o. days 0, 3, 5",5.20
same,Eos,[2]; 5 mg/kg,0.88
same,HGB,[2]; 5 mg/kg,131.00
same,HOT,[2]; 5 mg/kg,0.44
same,MCH,[2]; 5 mg/kg,15.90
same,MCHC,[2]; 5 mg/kg,296.33
same,MCV,[2]; 5 mg/kg,53.70
same,Mon,[2]; 5 mg/kg,0.39 10^9/L
same,Neu,[2]; 5 mg/kg,1.65
same,PCT,[2]; 5 mg/kg,3.88
same,PDW,[2]; 5 mg/kg,15.20
same,PLT,[2]; 5 mg/kg,677.33
same,RBC,[2]; 5 mg/kg,8.28 10^12/L
same,RDW-CV,[2]; 5 mg/kg,0.14
same,RDW-SD,[2]; 5 mg/kg,31.27
same,WBC,[2]; 5 mg/kg,12.56
same,lvm,[2]; 5 mg/kg,9.60
same,Eos,[2]; 25 mg/kg,0.74
same,HGB,[2]; 25 mg/kg,136.00
same,HOT,[2]; 25 mg/kg,0.46
same,MCH,[2]; 25 mg/kg,15.53
same,MCHC,[2]; 25 mg/kg,294.00
same,MCV,[2]; 25 mg/kg,52.77
same,Mon,[2]; 25 mg/kg,0.52 10^9/L
same,Neu,[2]; 25 mg/kg,1.47
same,PCT,[2]; 25 mg/kg,1.77
same,PDW,[2]; 25 mg/kg,14.93
same,PLT,[2]; 25 mg/kg,330.00
same,RBC,[2]; 25 mg/kg,8.76 10^12/L
same,RDW-CV,[2]; 25 mg/kg,0.15
same,RDW-SD,[2]; 25 mg/kg,32.23
same,WBC,[2]; 25 mg/kg,11.49
same,lvm,[2]; 25 mg/kg,8.71
same,Eos,[2]; 50 mg/kg,0.43
same,HGB,[2]; 50 mg/kg,150.67
same,HOT,[2]; 50 mg/kg,0.52
same,MCH,[2]; 50 mg/kg,15.10
same,MCHC,[2]; 50 mg/kg,289.33
same,MCV,[2]; 50 mg/kg,52.07
same,Mon,[2]; 50 mg/kg,0.72 10^9/L
same,Neu,[2]; 50 mg/kg,0.86
same,PCT,[2]; 50 mg/kg,3.92
same,PDW,[2]; 50 mg/kg,14.70
same,PLT,[2]; 50 mg/kg,751.67
same,RBC,[2]; 50 mg/kg,9.99 10^12/L
same,RDW-CV,[2]; 50 mg/kg,0.13
same,RDW-SD,[2]; 50 mg/kg,29.03
same,WBC,[2]; 50 mg/kg,8.25
same,lvm,[2]; 50 mg/kg,6.23
same,"histopathology, spleen","[3]; mice, 25 mg/kg p.o., HE, 100×",mild extramedullar hematopoiesis
same,"histopathology, kidneys","[3]; mice, 25 mg/kg p.o., HE, 200×","narrowing of Bowman’s space (arrow), focal tubular atrophy"
same,"histopathology, kidneys","[3]; mice, 50 mg/kg p.o., HE, 200×",multifocal mild tubular damage
same,"histopathology, liver","[3]; mice, 50 mg/kg p.o., HE, 400×",rare incipient centrilobular necrosis
same,"histopathology, liver","[3]; mice, 5, 25, 50 mg/kg p.o., dose-dependent",minimal evidence of damage
same,"histopathology, kidneys","[3]; mice, 5, 25, 50 mg/kg p.o., proportional to dose",most pronounced pathological changes
same,"histopathology, spleen","[3]; mice, all three doses (5, 25, 50 mg/kg p.o.)",varying degrees of extramedullary haematopoiesis
